Measured values taken from patent publication US9248109B2, “High penetration prodrug compositions of peptides and peptide-related compounds” (priority 2009, dated 2016).
Where a name gives a salt, the structure may show the parent alone. Non-standard residues stand in square brackets, D forms with d. Residues, ends and D or L forms follow the SMILES beside them. *: point of attachment. Arg(NO2) = N=C(NCCC[C@H](N)C(=O)O)N[N+](=O)[O-]; X1 = CCCCO*

Test system: young Sprague Dawley rats
Assay: Anti-obese activity, transdermal, young female Sprague Dawley rats (second experiment)
Format: in vivo, rat
Conditions: for effect on overweight of young rats (in words): 10, 1 or 0.3 mg/kg transdermal twice per day for 30 days; for Food intake (per day & per rat) / Weight (g) (Day 30) / Weight (g) (Day 1): young rats; for Weight (g) (Day 1): baseline
Procedure: (§1) In a second experiment, 40 young female Sprague Dawley (SD) rats (180-225 g) were divided into 4 groups. In group A, 0.2 ml of water was administered to the back of rat (n=10) twice per day for 30 days. In Groups B, C, and D, 10 mg/kg, 1 mg/kg, or 0.3 mg/kg of H-Val-Pro-Gly-Pro-Arg(NO2)—OCH(CH3)2.HCl(SEQ ID NO: 197) in 0.2 ml of water were administered transdermally to the backs of rats (n=10) twice per day for 30 days respectively.
as §1, with “(180-230” for “(180-225”, “H-Val-Pro-Gly-Pro-Arg(diAc)-OCH2CH2CH2CH3.HCl(SEQ” for “H-Val-Pro-Gly-Pro-Arg(NO2)—OCH(CH3)2.HCl(SEQ”, “198)” for “197)”, “days.” for “days respectively.”
as §1, with “rats (182-223” for “rats (180-225”, “of H-Ala-Pro-Gly-Pro-Arg(NO2)—OCH2CH2CH2CH3.HCl(SEQ” for “of H-Val-Pro-Gly-Pro-Arg(NO2)—OCH(CH3)2.HCl(SEQ”, “NO: 199)” for “NO: 197)”, “water was” for “water were”
as §1, with “(185-220” for “(180-225”, “H-Val-Pro-Asp(OEt)-Pro-Arg(NO2)-OCH2CH2CH2CH3.HCl(SEQ” for “H-Val-Pro-Gly-Pro-Arg(NO2)—OCH(CH3)2.HCl(SEQ”, “200)” for “197)”, “days.” for “days respectively.”

[1] = 0.3 mg/kg transdermal twice per day for 30 days
[2] = 0.3 mg/kg transdermal twice per day
[3] = 1 mg/kg transdermal twice per day for 30 days
[4] = 1 mg/kg transdermal twice per day
[5] = 10 mg/kg transdermal twice per day for 30 days
[6] = 10 mg/kg transdermal twice per day

Row | Compound | effect on overweight of young rats (in words) | Food intake (per day & per rat) [1] | Weight (g) (Day 30) [1] | Weight (g) (Day 1) [2] | Food intake (per day & per rat) [3] | Weight (g) (Day 30) [3] | Weight (g) (Day 1) [4] | Food intake (per day & per rat) [5] | Weight (g) (Day 30) [5] | Weight (g) (Day 1) [6]
1 | CCCCOC(=O)[C@H](CCCNC(=N)N[N+](=O)[O-])NC(=O)[C@@H]1CCCN1C(=O)CNC(=O)[C@@H]1CCCN1C(=O)[C@H](C)N [H-Ala-Pro-Gly-Pro-Arg(NO2)—OCH2CH2CH2CH3.HCl] (HELM PEPTIDE1{A.P.G.P.[N=C(NCCC[C@H](N[*:1])C(=O)[*:2])N[N+](=O)[O-]].[CCCCO[*:1]]}$$$$V2.0) | controlled overweight of rats effectively | 21.3 ± 2.2 | 326.2 ± 4.8 | 194.1 ± 4.5 | 20.3 ± 2.7 | 321.7 ± 4.0 | 192.6 ± 4.1 | 19.5 ± 2.3 | 305.4 ± 4.7 | 193.7 ± 4.2
2 | CCCCOC(=O)[C@H](CCCNC(=N)N[N+](=O)[O-])NC(=O)[C@@H]1CCCN1C(=O)[C@H](CC(=O)OCC)NC(=O)[C@@H]1CCCN1C(=O)[C@@H](N)C(C)C [H-Val-Pro-Asp(OEt)-Pro-Arg(NO2)—OCH2CH2CH2CH3.HCl] (H-VPD(OEt)P[Arg(NO2)]-X1) | controlled overweight of rats effectively | 22.7 ± 2.9 | 336.6 ± 5.8 | 192.1 ± 4.6 | 21.3 ± 2.1 | 325.4 ± 4.9 | 193.2 ± 4.7 | 20.4 ± 2.7 | 315.4 ± 6.7 | 191.2 ± 5.2
3 | CC(C)OC(=O)[C@H](CCCNC(=N)N[N+](=O)[O-])NC(=O)[C@@H]1CCCN1C(=O)CNC(=O)[C@@H]1CCCN1C(=O)[C@@H](N)C(C)C [H-Val-Pro-Gly-Pro-Arg(NO2)-OCH(CH3)2•HCl, H-Val-Pro-Gly-Pro-Arg(NO2)—OCH(CH3)2.HCl] (HELM PEPTIDE1{V.P.G.P.[N=C(NCCC[C@H](N[*:1])C(=O)[*:2])N[N+](=O)[O-]].[CC(C)O[*:1]]}$$$$V2.0) | controlled overweight of young rats effectively | 21.8 ± 2.7 | 327.2 ± 3.8 | 195.1 ± 5.5 | 20.1 ± 2.8 | 323.1 ± 4.5 | 191.6 ± 4.7 | 19.8 ± 3.3 | 307.4 ± 5.7 | 192.7 ± 6.2
4 | H-Val-Pro-Gly-Pro-Arg(diAc)-OCH2CH2CH2CH3.HCl | controlled overweight of young rats effectively | 23.7 ± 2.9 | 346.2 ± 4.8 | 191.1 ± 4.8 | 22.1 ± 2.8 | 334.1 ± 4.9 | 190.6 ± 5.7 | 20.8 ± 2.8 | 317.4 ± 6.4 | 191.7 ± 4.6
